For the assay, the system named is C. acnes (ATCC 6919). Description: Growth of C. acnes, MIC plate method. Format: cell-based, Cutibacterium acnes. The following applies: actives at the stated % in 20 ml agar; 10 μl inoculum spotted; 37° C. 4-5 days anaerobically. The procedure:
The actives whether used singly or in combination as shown in Table-1 were tested for growth of C. acnes using the invitro protocol as given below:
Protocol used for Measuring Growth (MIC Plate Method)
Working Cultures of Test Organisms
For C. acnes (ATCC 6919): Approximately 4-5 days prior to testing, a sterile plate of […] (RCM Agar) was inoculated with the challenge bacterial test organism and incubated at 37° C.±1° C. for 4-5 days anaerobically.
Test Organism Suspensions (To Be Prepared Just Before Use)
A suspension of the challenge microorganism was prepared in sterile 0.85% saline and a cell density were adjusted at 620 nm to achieve a challenge suspension concentration of approximately 1.0×10^8 colony forming units per ml for bacteria
Preparation of Sample Concentrations
• a) Aliquot of samples were taken to achieve required test concentration in 20 ml of agar system. • b) Test samples were initially dissolved in 1 ml of sample diluent (sterile d/water or solvent) to get test solutions • c) The test solutions were added to 20 ml sterile molten agar maintained at a temperature of 45-50° C., mixed thoroughly and poured into petri plates. The agar was allowed to solidify at room temperature. • d) On solidification, 10μl inoculum of prepared test culture was spotted onto respective agar surfaces in duplicates • e) The inoculated plates were allowed to stand at room temperature until the inoculum spots had been absorbed into the agar. The plates were incubated at 37° C. ±1° C. for 4-5 days anaerobically. After completion of incubation, plates were checked for growth and no growth to determine the MIC value.

Take `Oc1ccc(C2CCCC2)cc1` [E, 4 cyclo pentyl phenol]: the “Observation (growth of C. acnes)” value is recorded as “Growth”.

As to `CCCCCCc1ccc(O)cc1O` [Example A, 4 hexyl resorcinol], the “Observation (growth of C. acnes)” value is “Growth”.

Consider `CCC(C)c1ccc(O)cc1` (stereo not drawn) [C, 4 sec butyl phenol], for which the “Observation (growth of C. acnes)” value is on record as “Growth”.

The values above are taken from patent US20250041176A1, “An antimicrobial composition” (Conopco, Inc., d/b/a UNILEVER, priority 2021, published 2025).
